According to patent publication US12545685B2 (Daiichi Sankyo Company, Limited, priority 2011, dated 2026):

These molecules were tested against T1, Mdm2/p53 binding (GST-Mdm2 / His-p53) (Homo sapiens, UniProt Q00987, L33E) (assay: Mdm2/p53 binding assay (HTRF, His-p53 and GST-Mdm2)). Details: His-p53 (aa 1-132) and GST-Mdm2 (aa 25-108, L33E) 6.25 nM each; 25°C, 1 hour; values given as ranges.
T1 construct: Mdm2 partial protein having Mdm2 amino acids at positions 25 to 108
Procedure, shortened: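 Binding was detected by HTRF (ex 320 nm, em 620/665 nm) after 1 h at 25 °C, using Eu-cryptate anti-GST and XL665 anti-His antibodies. The protein pair was GST-Mdm2 (residues 25–108, L33E) with His-p53 (residues 1–132), each 6.25 nM in the protein dilution. T/C used no-compound control and no-p53 background, and IC50 came from sigmoid fitting.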

T1 sequence (Q00987 25-108 L33E): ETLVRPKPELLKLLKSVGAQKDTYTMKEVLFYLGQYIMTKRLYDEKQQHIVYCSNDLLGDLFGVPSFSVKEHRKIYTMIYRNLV

IC50 [nM] | Structure (SMILES)
1 to 50 | CCN(C)C(=O)[C@@H]1CC[C@@H](NC(=O)[C@@H]2NC3(CCC(C)(C)CC3)[C@@]3(C(=O)Nc4cc(Cl)ccc43)[C@H]2c2ccnc(Cl)c2F)CO1 [Example 125, (3′R, 4′S,5′R)-6″-chloro-4′-(2-chloro-3-fluoropyridin-4-yl)-N-{(3R,6S)-6-[ethyl(methyl)carbamoyl]tetrahydro-2H-pyran-3-yl}-4,4-dimethyl-2″-oxo-1″,2″-dihydrodispiro[cyclohexane-1,2′-pyrrolidine-3′,3″-indole]-5′-carboxamide]
1 to 50 | CC1(C)CCC2(CC1)N[C@@H](C(=O)N[C@@H]1CC[C@@H](C(=O)NCCF)OC1)[C@H](c1ccnc(Cl)c1F)[C@]21C(=O)Nc2cc(Cl)ccc21 [Example 126, (3′R, 4′S,5′R)-6″-chloro-4′-(2-chloro-3-fluoropyridin-4-yl)-N-{(3R,6S)-6-[{2-fluoroethyl}carbamoyl]tetrahydro-2H-pyran-3-yl}-4,4-dimethyl-2″-oxo-1″,2″-dihydrodispiro[cyclohexane-1,2′-pyrrolidine-3′,3″-indole]-5′-carboxamide]
1 to 50 | COCCN(C)C(=O)[C@@H]1CC[C@@H](NC(=O)[C@@H]2NC3(CCC(C)(C)CC3)[C@@]3(C(=O)Nc4cc(Cl)ccc43)[C@H]2c2ccnc(Cl)c2F)CO1 [Example 127, (3′R, 4′S,5′R)-6″-chloro-4′-(2-chloro-3-fluoropyridin-4-yl)-N-{(3R,6S)-6-[(2-methoxyethyl)(methyl)carbamoyl]tetrahydro-2H-pyran-3-yl}-4,4-dimethyl-2″-oxo-1″,2″=dihydrodispiro[cyclohexane-1,2′-pyrrolidine-3′,3″-indole]-5′-carboxamide]
1 to 50 | COCCNC(=O)[C@@H]1CC[C@@H](NC(=O)[C@@H]2NC3(CCC(C)(C)CC3)[C@@]3(C(=O)Nc4cc(Cl)ccc43)[C@H]2c2ccnc(Cl)c2F)CO1 [Example 128, (3′R, 4′S,5′R)-6″-chloro-4′-(2-chloro-3-fluoropyridin-4-yl)-N-{(3R,6S)-6-[(2-methoxyethyl)carbamoyl]tetrahydro-2H-pyran-3-yl}-4,4-dimethyl-2″-oxo-1″,2″-dihydrodispiro[cyclohexane-1,2′-pyrrolidine-3′,3″-indole]-5′-carboxamide]
1 to 50 | CO[C@@H]1C[C@@H](NC(=O)[C@@H]2NC3(CC(CF)(CF)C3)[C@@]3(C(=O)Nc4cc(Cl)ccc43)[C@H]2c2cccc(Cl)c2F)CO[C@@H]1CO [Example 129, (3′R,4′S,5′R)-6″-chloro-4′-(3-chloro-2-fluorophenyl)-3,3-bis(fluoromethyl)-N-[(3R,5R,6R)-6-(hydroxymethyl)-5-methoxytetrahydro-2H-pyran-3-yl]-2″-oxo-1″,2″-dihydrodispiro[cyclobutane-1,2′-pyrrolidine-3′,3″-indole]-5′-carboxamide]
1 to 50 | CC1(C)CCC2(CC1)N[C@@H](C(=O)N[C@H]1CC[C@H](c3nnc(CO)o3)CC1)[C@H](c1ccnc(Cl)c1F)[C@]21C(=O)Nc2cc(Cl)ccc21 [Example 130, (3′R, 4′S,5′R)-6″-chloro-4′-(2-chloro-3-fluoropyridin-4-yl)-N-{trans-4-[5-(hydroxymethyl)-1,3,4-oxadiazol-2-yl]cyclohexyl}-4,4-dimethyl-2″-oxo-1″,2″-dihydrodispiro[cyclohexane-1,2′-pyrrolidine-3′,3″-indole]-5′-carboxamide]
50 to 100 | O=C(N[C@H]1CC[C@H](c2nnc(CO)o2)CC1)[C@@H]1NC2(CC(CF)(CF)C2)[C@@]2(C(=O)Nc3cc(Cl)ccc32)[C@H]1c1cccc(Cl)c1F [Example 131, (3′R, 4′S,5′R)-6″-chloro-4′-(3-chloro-2-fluorophenyl)-3,3-bis(fluoromethyl)-N-[trans-4-[5-(hydroxymethyl)-1,3,4-oxadiazol-2-yl]cyclohexyl]-2″-oxo-1″,2″-dihydrodispiro[cyclobutane-1,2′-pyrrolidine-3′,3″-indole]-5′-carboxamide]
50 to 100 | C[C@@H](O)c1nnc([C@H]2CC[C@H](NC(=O)[C@@H]3NC4(CCC(C)(C)CC4)[C@@]4(C(=O)Nc5cc(Cl)ccc54)[C@H]3c3ccnc(Cl)c3F)CC2)o1 [Example 132, (3′R, 4′S, S′R)-6″-chloro-4′-(2-chloro-3-fluoropyridin-4-yl)-N-(trans-4-{5-[(1R)-1-hydroxyethyl]-1,3,4-oxadiazol-2-yl}cyclohexyl)-4,4-dimethyl-2″-oxo-1″,2″-dihydrodispiro[cyclohexane-1,2′-pyrrolidine-3′,3″-indole]-5′-carboxamide]
50 to 100 | COC[C@@H]1CC[C@@H](NC(=O)[C@@H]2NC3(CCC(C)(C)CC3)[C@@]3(C(=O)Nc4cc(Cl)ccc43)[C@H]2c2ccnc(Cl)c2F)CO1 [Example 133, (3′R, 4′S,5′R)-6″-chloro-4′-(2-chloro-3-fluoropyridin-4-yl)-N-[(3R,6S)-6-(methoxymethyl)tetrahydro-2H-pyran-3-yl]-4,4-dimethyl-2″-oxo-1″,2″-dihydrodispiro[cyclohexane-1,2′-pyrrolidine-3′,3″-indole]-5′-carboxamide]
1 to 50 | NC(=O)[C@H]1C[C@H](NC(=O)[C@@H]2NC3(CC(CF)(CF)C3)[C@@]3(C(=O)Nc4cc(Cl)ccc43)[C@H]2c2cccc(Cl)c2F)C1 [Example 134, (3′R, 4′S,5′R)—N-(trans-3-carbamoylcyclobutyl)-6″-chloro-4′-(3-chloro-2-fluorophenyl)-3,3-bis(fluoromethyl)-2″-oxo-1″,2″-dihydrodispiro[cyclobutane-1,2′-pyrrolidine-3′,3″-indole]-5′-carboxamide]
100 to 500 | CC(C)(O)[C@@H]1CC[C@@H](NC(=O)[C@@H]2NC3(CC(CF)(CF)C3)[C@@]3(C(=O)Nc4cc(Cl)ccc43)[C@H]2c2cccc(Cl)c2F)CO1 [Example 135, (3′R, 4′S,5′R)-6″-chloro-4′-(3-chloro-2-fluorophenyl)-3,3-bis(fluoromethyl)-N-[(3R,6S)-6-(1-hydroxy-1-methylethyl)tetrahydro-2H-pyran-3-yl]-2″-oxo-1″,2″-dihydrodispiro[cyclobutane-1,2′-pyrrolidine-3′,3″-indole]-5′-carboxamide]
1 to 50 | O=C(N[C@@H]1CC[C@@H](c2nnco2)OC1)[C@@H]1NC2(CC(CF)(CF)C2)[C@@]2(C(=O)Nc3cc(Cl)ccc32)[C@H]1c1cccc(Cl)c1F [Example 136, (3′R, 4′S,5′R)-6″-chloro-4′-(3-chloro-2-fluorophenyl)-3,3-bis(fluoromethyl)-N-[(3R,6S)-6-(1,3,4-oxadiazol-2-yl)tetrahydro-2H-pyran-3-yl]-2″-oxo-1″,2″-dihydrodispiro[cyclobutane-1,2′-pyrrolidine-3′,3″-indole]-5′-carboxamide]
50 to 100 | O=C(NC1CCOCC1)[C@@H]1CC[C@@H](NC(=O)[C@@H]2NC3(CC(CF)(CF)C3)[C@@]3(C(=O)Nc4cc(Cl)ccc43)[C@H]2c2cccc(Cl)c2F)CO1 [Example 137, (3′R, 4′S,5′R)-6″-chloro-4′-(3-chloro-2-fluorophenyl)-3,3-bis(fluoromethyl)-2″-oxo-N-[(3R,6S)-6-(tetrahydro-2H-pyran-4-ylcarbamoyl)tetrahydro-2H-pyran-3-yl]-1″,2″-dihydrodispiro[cyclobutane-1,2′-pyrrolidine-3′,3″-indole]-5′-carboxamide]
50 to 100 | O=C(NCCF)[C@@H]1CC[C@@H](NC(=O)[C@@H]2NC3(CC(CF)(CF)C3)[C@@]3(C(=O)Nc4cc(Cl)ccc43)[C@H]2c2cccc(Cl)c2F)CO1 [Example 138, (3′R, 4′S,5′R)-6″-chloro-4′-(3-chloro-2-fluorophenyl)-N-{(3R,6S)-6-[(2-fluoroethyl)carbamoyl]tetrahydro-2H-pyran-3-yl}-3,3-bis(fluoromethyl)-2″-oxo-1″,2″-dihydrodispiro[cyclobutane-1,2′-pyrrolidine-3′,3″-indole]-5′-carboxamide]
1 to 50 | COCCN(C)C(=O)[C@@H]1CC[C@@H](NC(=O)[C@@H]2NC3(CC(CF)(CF)C3)[C@@]3(C(=O)Nc4cc(Cl)ccc43)[C@H]2c2cccc(Cl)c2F)CO1 [Example 139, (3′R, 4′S,5′R)-6″-chloro-4′-(3-chloro-2-fluorophenyl)-3,3-bis(fluoromethyl)-N-[(3R,6S)-6-[(2-methoxyethyl)(methyl)carbamoyl]tetrahydro-2H-pyran-3-yl]-2″-oxo-1″,2″-dihydrodispiro[cyclobutane-1,2′-pyrrolidine-3′,3″-indole]-5′-carboxamide]
50 to 100 | CN(C)C(=O)[C@@H]1CC[C@@H](NC(=O)[C@@H]2NC3(CCC(C)(C)CC3)[C@@]3(C(=O)Nc4cc(Cl)ccc43)[C@H]2c2ccnc(Cl)n2)CO1 [Example 140, (3′R, 4′R, 5′R)-6″-chloro-4′-(2-chloropyrimidin-4-yl)-N-[(3R,6S)-6-(dimethylcarbamoyl)tetrahydro-2H-pyran-3-yl]-4,4-dimethyl-2″-oxo-1″,2″-dihydrodispiro[cyclohexane-1,2′=pyrrolidine-3′,3″-indole]-5′-carboxamide]
1 to 50 | CCNC(=O)[C@@H]1CC[C@@H](NC(=O)[C@@H]2NC3(CC(CF)(CF)C3)[C@@]3(C(=O)Nc4cc(Cl)ccc43)[C@H]2c2cccc(Cl)c2F)CO1 [Example 141]
1 to 50 | COCCNC(=O)[C@@H]1CC[C@@H](NC(=O)[C@@H]2NC3(CC(CF)(CF)C3)[C@@]3(C(=O)Nc4cc(Cl)ccc43)[C@H]2c2cccc(Cl)c2F)CO1 [Example 142, (3′R, 4′S,5′R)-6″-chloro-4′-(3-chloro-2-fluorophenyl)-3,3-bis(fluoromethyl)-N-{(3R,6S)-6-[(2-methoxyethyl)carbamoyl]tetrahydro-2H-pyran-3-yl}-2″-oxo-1″,2″-dihydrodispiro[cyclobutane-1,2′-pyrrolidine-3′,3″-indole]-5′-carboxamide]
